Laboratory results taken from patent publication US10138255B2, “Piperazine derivatives as HIV protease inhibitors” (Merck Sharp & Dohme Corp., priority 2014, dated 2018).

These compounds were tested on HIV-1 (H9IIIB strain) (assay: Cell-Based HIV Infection Assay Using a Reporter (MT4-GFP cells)). Conditions: Human immunodeficiency virus 1, inflection point (IP) of viral growth inhibition; MT4-GFP cells infected with HIV-1 H9IIIB; 50% normal human serum; mean of at least two independent experiments; read-out: Cell Based IP (50% NHS).
How it was run: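 MT4-GFP cells (HIV LTR-driven GFP) bulk-infected with HIV-1 H9IIIB at low MOI for 24 h, washed, then exposed to compounds in RPMI plus 50% normal human serum, 0.4% DMSO. Infected cells counted at 24 and 48 h; R0 = 48 h/24 h ratio, inhibition normalised to DMSO and triple-drug control; IP from 4-parameter fit.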

SMILES | EC50
COC(=O)N[C@H](C(=O)Nc1cccc(F)c1CC[C@H]1CN[C@@H]2CCCS(=O)(=O)N1C2)[C@@H](c1ccc(Cl)cc1)c1csc(C(F)(F)F)n1 [Example 252, methyl {(1S,2R)-2-(4-chlorophenyl)-1-[(2-{2-[(6R,9S)-2,2-dioxido-2-thia-1,7-diazabicyclo[4.3.1]dec-9-yl]ethyl}-3-fluorophenyl)carbamoyl]-2-[2-(trifluoromethyl)-1,3-thiazol-4-yl]ethyl}carbamate] | 17 nM
N[C@H](C(=O)Nc1cccc(F)c1CCC1CNC2CCCS(=O)(=O)N1C2)[C@@H](c1ccc(F)cc1)C12CC(C1)C2 (stereo partly drawn) [Example 86, (βR)-β-bicyclo[1.1.1]pent-1-yl-N-{2-[2-(2,2-dioxido-2-thia-1,7-diazabicyclo[4.3.1]dec-9-yl)ethyl]-3-fluorophenyl}-4-fluoro-L-phenylalaninamide] | 340 nM
COC(=O)N[C@H](C(=O)Nc1cccc(F)c1CCC1CNC2CCCS(=O)(=O)N1C2)[C@@H](c1ccc(F)cc1)c1cccc(C(F)(F)F)c1 (stereo partly drawn) [Example 63, methyl [(1S)-2-({2-[2-(2,2-dioxido-2-thia-1,7-diazabicyclo[4.3.1]dec-9-yl)ethyl]-3-fluorophenyl}amino)-1-{(S)-(4-fluorophenyl)[3-(trifluoromethyl)phenyl]methyl}-2-oxoethyl]carbamate] | 14 nM
N[C@H](C(=O)Nc1cncc(F)c1CC[C@H]1CN[C@@H]2CCCS(=O)(=O)N1C2)[C@@H](c1ccc(Cl)c(F)c1)C1CCCCC1 [Example 244, (2S,3R)-2-amino-3-(4-chloro-3-fluorophenyl)-3-cyclohexyl-N-(4-(2-((6R,9S)-2,2-dioxido-2-thia-1,7-diazabicyclo[4.3.1]decan-9-yl)ethyl)-5-fluoropyridin-3-yl)propanamide] | 4.3 nM
COC(=O)CCCN[C@H](C(=O)N[C@H]1CCC[C@@H]1CC[C@H]1CN[C@@H]2CCCS(=O)(=O)N1C2)[C@@H](c1ccc(Cl)cc1)C1CCOC(C)(C)C1 (stereo partly drawn) [Example 229, methyl 4-{[(1S,2R)-2-(4-chlorophenyl)-2-(2,2-dimethyltetrahydro-2H-pyran-4-yl)-1-{[(1S,2R)-2-{2-[(6R,9S)-2,2-dioxido-2-thia-1,7-diazabicyclo[4.3.1]dec-9-yl]ethyl}cyclopentyl]carbamoyl}ethyl]amino} butanoate] | 210 nM
COC(=O)N[C@H](C(=O)Nc1cccc(F)c1CC[C@H]1CN[C@@H]2CCCS(=O)(=O)N1C2)C1(c2ccc(Cl)cc2)CCN(S(C)(=O)=O)CC1 [Example 175, methyl {(1S)-1-[4-(4-chlorophenyl)-1-(methylsulfonyl)piperidin-4-yl]-2-[(2-{2-[(6R,9S)-2,2-dioxido-2-thia-1,7-diazabicyclo[4.3.1]dec-9-yl]ethyl}-3-fluorophenyl)amino]-2-oxoethyl}carbamate] | 120 nM
COC(=O)N[C@H](C(=O)Nc1cccc(F)c1CCC1CNC2CCCS(=O)(=O)N1C2)[C@H](CCC1CCOCC1)c1ccc(Cl)c(F)c1 (stereo partly drawn) [Example 9, Methyl [(1S,2R)-2-(4-chloro-3-fluorophenyl)-1-({2-[2-(2,2-dioxido-2-thia-1,7-diazabicyclo[4.3.1]dec-9-yl)ethyl]-3-fluorophenyl}carbamoyl)-4-(tetrahydro-2H-pyran-4-yl)butyl]carbamate] | 7.1 nM
C[C@@H]1CC([C@H](c2ccc(Cl)cc2)[C@H](N)C(=O)N[C@H]2CCC[C@@H]2CC[C@H]2CN[C@@H]3CCCS(=O)(=O)N2C3)C[C@H](C)O1 (stereo partly drawn) [Example 196, (βR)-4-chloro-β-[(2R,4s,6S)-2,6-dimethyltetrahydro-2H-pyran-4-yl]-N-[(1S,2R)-2-{2-[(6R,9S)-2,2-dioxido-2-thia-1,7-diazabicyclo[4.3.1]dec-9-yl]ethyl}cyclopentyl]-L-phenylalaninamide] | 120 nM
CC1(C)C[C@@H]([C@H](c2ccc(Cl)c(F)c2)[C@H](N)C(=O)Nc2cncc(F)c2CC[C@H]2CN[C@@H]3CCCS(=O)(=O)N2C3)CCO1 [Example 243, (2S,3R)-2-amino-3-(4-chloro-3-fluorophenyl)-3-((S)-2,2-dimethyltetrahydro-2H-pyran-4-yl)-N-(4-(2-((6R,9S)-2,2-dioxido-2-thia-1,7-diazabicyclo[4.3.1]decan-9-yl)ethyl)-5-fluoropyridin-3-yl)propanamide] | 8 nM
COC(=O)N[C@H](C(=O)Nc1c(F)ccc(F)c1CC[C@H]1CN[C@@H]2CCCS(=O)(=O)N1C2)[C@@H](c1ccc(Cl)cc1)[C@H]1CCOC(C)(C)C1 [Example 200, methyl {(1S,2R)-2-(4-chlorophenyl)-2-[(4S)-2,2-dimethyltetrahydro-2H-pyran-4-yl]-1-[(2-{2-[(6R,9S)-2,2-dioxido-2-thia-1,7-diazabicyclo[4.3.1]dec-9-yl]ethyl}-3,6-difluorophenyl)carbamoyl]ethyl}carbamate] | 35 nM
N[C@H](C(=O)Nc1cccc(F)c1OCC1CNC2CCCS(=O)(=O)N1C2)[C@@H](c1ccc(F)cc1)c1cc(F)cc(F)c1 (stereo partly drawn) [Example 84, (βS)-β-(3,5-difluorophenyl)-N-{2-[(2,2-dioxido-2-thia-1,7-diazabicyclo[4.3.1]dec-9-yl)methoxy]-3-fluorophenyl}-4-fluoro-L-phenylalaninamide] | 210 nM
N[C@H](C(=O)Nc1cccc(F)c1CCC1CNC2CCCS(=O)(=O)N1C2)[C@@H](c1ccc(Cl)cc1)C1CC(F)(F)C1 (stereo partly drawn) [Example 48, (βR)-4-chloro-β-(3,3-difluorocyclobutyl)-N-{2-[2-(2,2-dioxido-2-thia-1,7-diazabicyclo[4.3.1]dec-9-yl)ethyl]-3-fluorophenyl}-L-phenylalaninamide] | 33 nM
COC(=O)N[C@H](C(=O)N[C@H]1CCC[C@@H]1CC[C@H]1CN[C@@H]2CCCS(=O)(=O)N1C2)[C@@H](c1ccc(F)cc1)c1cc(F)cc(F)c1 [Example 56, methyl [(1S,2S)-2-(3,5-difluorophenyl)-1-{[(1S,2R)-2-{2-[(6R,9S)-2,2-dioxido-2-thia-1,7-diazabicyclo[4.3.1]dec-9-yl]ethyl}cyclopentyl]carbamoyl}-2-(4-fluorophenyl)ethyl]carbamate] | 24 nM
CC1(C)C[C@@H]([C@H](c2ccc(Cl)cc2)[C@H](N)C(=O)N[C@H]2CCCC[C@@H]2CC[C@H]2CN[C@@H]3CCCS(=O)(=O)N2C3)CCO1 [Example 129, (βR)-4-chloro-β-[(4S)-2,2-dimethyltetrahydro-2H-pyran-4-yl]-N-[(1S,2R)-2-{2-[(6R,9S)-2,2-dioxido-2-thia-1,7-diazabicyclo[4.3.1]dec-9-yl]ethyl}cyclohexyl]-L-phenylalaninamide] | 56 nM
COC(=O)N[C@H](C(=O)N[C@H]1CCCC[C@@H]1CC[C@H]1CN[C@@H]2CCCS(=O)(=O)N1C2)[C@H](c1cncc(F)c1)c1ccc(Cl)c(F)c1 [Example 99, methyl [(1S,2S)-2-(4-chloro-3-fluorophenyl)-1-{[(1S,2R)-2-{2-[(6R,9S)-2,2-dioxido-2-thia-1,7-diazabicyclo[4.3.1]dec-9-yl]ethyl}cyclohexyl]carbamoyl}-2-(5-fluoropyridin-3-yl)ethyl]carbamate] | 55 nM
CC1(C)CC([C@H](c2ccc(Cl)cc2)[C@H](NCCOCc2ccccc2)C(=O)N[C@H]2CCC[C@@H]2CC[C@H]2CN[C@@H]3CCCS(=O)(=O)N2C3)CCO1 (stereo partly drawn) [Example 230, (βR)-Nα-[2-(benzyloxy)ethyl]-4-chloro-β-(2,2-dimethyltetrahydro-2H-pyran-4-yl)-N-[(1S,2R)-2-{2-[(6R,9S)-2,2-dioxido-2-thia-1,7-diazabicyclo[4.3.1]dec-9-yl]ethyl}cyclopentyl]-L-phenylalaninamide] | 310 nM
CCOC[C@H]1CC[C@H]([C@H](c2ccc(Cl)cc2)[C@H](N)C(=O)Nc2cncc(F)c2CC[C@H]2CN[C@@H]3CCCS(=O)(=O)N2C3)CC1 [Example 258, (βR)-4-chloro-N-(4-{2-[(6R,9S)-2,2-dioxido-2-thia-1,7-diazabicyclo[4.3.1]dec-9-yl]ethyl}-5-fluoropyridin-3-yl)-β-[(1r,4R)-4-(ethoxymethyl)cyclohexyl]-L-phenylalaninamide] | 3.4 nM
COC(=O)N[C@H](C(=O)Nc1cccc(F)c1CCC1CNC2CCCS(=O)(=O)N1C2)[C@H](c1cncc(Cl)c1)c1ccc(Cl)c(F)c1 (stereo partly drawn) [Example 73, methyl [(1S,2S)-2-(4-chloro-3-fluorophenyl)-2-(5-chloropyridin-3-yl)-1-({2-[2-(2,2-dioxido-2-thia-1,7-diazabicyclo[4.3.1]dec-9-yl)ethyl]-3-fluorophenyl}carbamoyl)ethyl]carbamate] | 18 nM
COC(=O)N[C@H](C(=O)Nc1cccc(F)c1CCC1CNC2CCCS(=O)(=O)N1C2)[C@@H](c1ccc(Cl)cc1)C1CCOCC1 (stereo partly drawn) [Example 37, methyl [(1S,2R)-2-(4-chlorophenyl)-1-({2-[2-(2,2-dioxido-2-thia-1,7-diazabicyclo[4.3.1]dec-9-yl)ethyl]-3-fluorophenyl}carbamoyl)-2-(tetrahydro-2H-pyran-4-yl)ethyl]carbamate] | 13 nM
N[C@H](C(=O)Nc1cncc(F)c1CC[C@H]1CN[C@@H]2CCCS(=O)(=O)N1C2)[C@@H](c1ccc(F)cc1)C1CCOCC1 [Example 195, (βR)-N-(4-{2-[(6R,9S)-2,2-dioxido-2-thia-1,7-diazabicyclo[4.3.1]dec-9-yl]ethyl}-5-fluoropyridin-3-yl)-4-fluoro-β-(tetrahydro-2H-pyran-4-yl)-L-phenylalaninamide] | 67 nM
CC(C)Oc1ncc([C@H](c2ccc(F)cc2)[C@H](N)C(=O)Nc2cccc(F)c2CC[C@H]2CN[C@@H]3CCCS(=O)(=O)N2C3)cn1 [Example 23, (βS)—N-(2-{2-[(6R,9S)-2,2-Dioxido-2-thia-1,7-diazabicyclo[4.3.1]dec-9-yl]ethyl}-3-fluorophenyl)-4-fluoro-β-[2-(1-methylethoxy)pyrimidin-5-yf]-L-phenylalaninamide] | 9.3 nM
